In patent publication US10770169B2, “Method of providing a treatment to a subject based on a dynamic pathway map” (THE REGENTS OF THE UNIVERSITY OF CALIFORNIA, priority 2010, dated 2020):

Test system: panel of 55 breast cancer cell lines
Assay: Cell growth inhibition assay (Cell Titer Glo, 72 h, 9 doses; GI50, TGI, LC50)
Format: cell-based, human
Conditions: value is the negative log10 of mol/L
[1] = BT20 cell line, censored GI50 values
[2] = BT483 cell line, censored GI50 values
[3] = HCC1187 cell line, censored GI50 values
[4] = HCC2185 cell line, censored GI50 values
[5] = SUM52PE cell line, censored GI50 values
[6] = SUM149PT cell line, censored GI50 values
[7] = SUM185PE cell line, censored GI50 values
[8] = ZR751 cell line, censored GI50 values

## CC(C)[C@H](CO)Nc1nc(Nc2cccc(Cl)c2)c2ncn(C(C)C)c2n1 [Purvalanol A]
600MPE cell line, censored GI50 values
  GI50: 4.52
AU565 cell line, censored GI50 values
  GI50: 5.01
[1]
  GI50: 4.56
[2]
  GI50: 4.40
HCC202 cell line, censored GI50 values
  GI50: 3.99
[3]
  GI50: 4.74
HCC1428 cell line, censored GI50 values
  GI50: 4.44
HCC1806 cell line, censored GI50 values
  GI50: 4.00
HCC1937 cell line, censored GI50 values
  GI50: 4.97
HCC1954 cell line, censored GI50 values
  GI50: 4.43
[4]
  GI50: 4.57
MCF7 cell line, censored GI50 values
  GI50: 4.80
MDAMB134VI cell line, censored GI50 values
  GI50: 4.26
MDAMB175VII cell line, censored GI50 values
  GI50: 4.46
MDAMB468 cell line, censored GI50 values
  GI50: 4.12
SKBR3 cell line, censored GI50 values
  GI50: 4.60
[5]
  GI50: 4.79
[6]
  GI50: 4.88
[7]
  GI50: 4.69
SUM225CWN cell line, censored GI50 values
  GI50: 4.28
SUM1315MO2 cell line, censored GI50 values
  GI50: 5.09
[8]
  GI50: 4.01
Cell line 600MPE
  GI50: 4.52
Cell line AU565
  GI50: 5.01
Cell line BT20
  GI50: 4.56
Cell line BT474
  GI50: 3.78
Cell line BT483
  GI50: 4.40
Cell line BT549
  GI50: 3.78
Cell line CAMA1
  GI50: 3.86
Cell line HCC70
  GI50: 3.78
Cell line HCC202
  GI50: 3.99
Cell line HCC1143
  GI50: 3.78
Cell line HCC1187
  GI50: 4.74
Cell line HCC1395
  GI50: 3.78
Cell line HCC1419
  GI50: 3.78
Cell line HCC1428
  GI50: 4.44
Cell line HCC1500
  GI50: 3.95
Cell line HCC1806
  GI50: 4.00
Cell line HCC1937
  GI50: 4.97
Cell line HCC1954
  GI50: 4.43
Cell line HCC2185
  GI50: 4.57
Cell line HCC3153
  GI50: 3.83
Cell line MCF7
  GI50: 4.80
Cell line MDAMB134V
  GI50: 4.26
Cell line MDAMB157
  GI50: 3.78
Cell line MDAMB175V
  GI50: 4.46
Cell line MDAMB231
  GI50: 3.78
Cell line MDAMB361
  GI50: 3.78
Cell line MDAMB436
  GI50: 3.78
Cell line MDAMB468
  GI50: 4.12
Cell line SKBR3
  GI50: 4.60
Cell line SUM52PE
  GI50: 4.79
Cell line SUM149PT
  GI50: 4.88
Cell line SUM159PT
  GI50: 3.78
Cell line SUM185PE
  GI50: 4.69
Cell line SUM225CWN
  GI50: 4.28
Cell line SUM1315MO
  GI50: 5.09
Cell line T47D
  GI50: 3.78
Cell line UACC893
  GI50: 3.78
Cell line ZR75B
  GI50: 3.78
Cell line ZR751
  GI50: 4.01

## O=S(=O)(CC1CS1)c1ccc(Oc2ccccc2)cc1 (centres unmarked) [SB-3CT]
[1]
  GI50: 4.42
BT474 cell line, censored GI50 values
  GI50: 4.99
[2]
  GI50: 4.59
HCC38 cell line, censored GI50 values
  GI50: 4.62
[3]
  GI50: 4.83
[4]
  GI50: 4.21
MDAMB361 cell line, censored GI50 values
  GI50: 4.00
MDAMB415 cell line, censored GI50 values
  GI50: 4.00
[5]
  GI50: 4.22
[6]
  GI50: 4.53
SUM159PT cell line, censored GI50 values
  GI50: 4.85
[7]
  GI50: 4.76
UACC812 cell line, censored GI50 values
  GI50: 4.28
ZR75B cell line, censored GI50 values
  GI50: 4.62
[8]
  GI50: 4.00
Cell line AU565
  GI50: 4.00
Cell line BT20
  GI50: 4.42
Cell line BT474
  GI50: 4.99
Cell line BT483
  GI50: 4.59
Cell line CAMA1
  GI50: 4.00
Cell line HCC38
  GI50: 4.62
Cell line HCC70
  GI50: 3.88
Cell line HCC1143
  GI50: 4.00
Cell line HCC1187
  GI50: 4.83
Cell line HCC1395
  GI50: 3.78
Cell line HCC1419
  GI50: 3.78
Cell line HCC1428
  GI50: 4.18
Cell line HCC1500
  GI50: 3.78
Cell line HCC1806
  GI50: 4.00
Cell line HCC1937
  GI50: 4.00
Cell line HCC1954
  GI50: 4.00
Cell line HCC2185
  GI50: 4.21
Cell line HCC3153
  GI50: 4.00
Cell line MCF7
  GI50: 4.00
